Columns and labels:
[1] = tested on: HFD-induced AD mice; assay: Behavioral tests (Y-maze, NOR, MWM) in HFD-induced AD mice; format: in vivo
Excerpt: (§1) In experiments with the HFD-induced AD mouse model, a total of 60 Institute of Cancer Research (ICR) male mice aged 4 weeks from Zhejiang Academy of Medical Sciences (Hangzhou, China) were used for animal experiments (permit number: ZJU20230121). The animals were provided free access to a chow diet and water. […] The HFD and normal diet were alternated every two days to maintain freshness. Weekly measurements were taken for water intake, food intake, and body weight. In the eighteenth week, the mice underwent Y-maze and NOR tests. The Morris water maze test was conducted during the nineteenth week. After confirming the successful establishment of the AD model characterized by cognitive impairment, oral administration of treatments commenced. […] Each group had 10 mice.
The Y-maze test is used to evaluate working memory, and the process was referenced in another report. In brief, the Y-maze consists of three black plastic arms (A, B, and C) with the same length (30 cm), width (10 cm), height (15 cm), and 120° relative to adjacent arms. Each mouse is placed facing the wall of arm A and allowed to explore the maze freely for 5 min. The behavior of mice is recorded with a video recorder, and the data are stored in ANY-MAZE software version 6.35 (Stoelting, Chicago, IL, USA). The total number of entries made by the mice into each arm—considered as either whole or half-body entries—is recorded. An alternation is defined as a mouse moving through all three arms without returning to the initial arm on the third visit. Alternation: number of alternations/(number of arm entries − 2) × 100%.
The NOR test is utilized to assess the working memory capabilities of mice. The NOR apparatus consists of an open, black plastic box, two identical objects, and one novel object. The activity of the mice within the open field is captured and recorded using a video recorder, with data subsequently stored in ANY-MAZE software. The test is conducted over a span of two days, incorporating habituation, training, and testing stages. During the habituation phase, the mice are placed in the box devoid of any objects, allowing them to explore freely for a duration of five min. Following a 24 h interval, the NOR test is administered, which consists of both the training and testing phases. In the training phase, each mouse is positioned in the central area of the box, where two identical objects are placed equidistant from the mouse. Each training session lasts for five minutes. After a one-hour break, one of the identical objects is replaced with a new, distinct object, and the exploration duration for each mouse is recorded. Exploration is defined by the time a mouse spends touching or sniffing an object. The exploration times during both the training and testing phases are documented via video recording, and the data are organized within ANY-MAZE software. The object recognition index was defined as follows: (time spent on the new object)/(time spent on the old object + time spent on the new object) × 100%. The data are calculated by ANY-MAZE software.
The MWM test is used to measure spatial memory and long-term memory. The whole MWM equipment includes a circular water tank (diameter 1.5 m, depth 50 cm) with warm water (22 ± 1 °C) 35 cm deep, a platform (diameter 14 cm, immersed 1 cm in water), a camera, and a computer for data analysis. The MWM test is conducted over five 5 days: 4 days for training and 1 day for testing. The pool is divided into four quadrants, and at least three quadrants are tested at a time. In the training stage, the mouse is placed on the wall of one of the four quadrants and allowed to swim and find the platform hidden underwater within 120 s. If the mouse cannot find the platform, the experimenter will guide it and let it stay on the platform for 10 s. The experiment lasts for 4 days. On the fifth day of the test phase, the platform is removed, and each mouse is placed in a similar starting position and allowed to move freely for 90 s. […]

[2] = tested on: AMPK, p-AMPK, Hsc70, PKM2, HK2, LAMP2A, APP, Tau, p-Tau, Aβ oligomers; assay: Western blot of cerebral cortex of HFD-induced AD mice; format: in vivo
Excerpt: as §1
Approximately 50 mg of cerebral cortex from brain tissues was homogenized in RIPA lysis buffer containing 1% protease inhibitor and 1% phosphatase inhibitor. Then, the sample was centrifuged at 12,000 rpm at 4 °C for 10 min, and the supernatant was transferred to a new tube. Protein concentrations were determined using the BCA kit, and 30 µg of protein from each sample was denatured by heating in water at 100 °C for 10 min. […] Finally, the strip was developed using chemiluminescence ECL reagent, and the blot density was quantified with ImageJ (National Institutes of Health, Bethesda, MD, USA).

[3] = tested on: PC12 cells; assay: EdU cell proliferation in PC12 cells (inhibitor experiment); format: cell-based; details: 24 h
Description: In the inhibitor experiment of EdU cell proliferation activity, PC12 cells were seeded into each well of a 24-well plate as above for 24 h. Then, the medium in each well was replaced with 500 μL of serum-free […] containing VER155008 (inhibitor of Hsc70, 3 µM), or NH4Cl (inhibitor of lysosome, 250 µM) for 30 min according to the literature, and 500 μL of serum-free DMEM containing different samples was added and cultured for 24 h, respectively. After that, PC12 cells were treated with EdU for 2 h according to the operation steps of the BeyoClick™ EdU-488 cell proliferation detection kit (#C0071S, Beyotime Biotechnology, Shanghai, China). After cell labeling, the supernatant was removed. Then, PC12 cells were fixed, washed, and blocked, and the click reaction solution was added at room temperature for 30 min. After that, DAPI staining was performed for 10 min. Finally, PC12 cells were detected by fluorescence microscope (Olympus IX53, Tokyo, Japan).

O=C(SCCCCCCSCCCC(F)(F)F)c1cccc(O)c1O [TBG096]
alternation behavior, Y-maze test ([1]; 0.1, 5, and 20 mg/kg, vs HFD-only, 20 mg/kg most pronounced): significantly improved
optimal dose in NOR test ([1]; HFD-induced AD mice): 5 mg/kg
dosage of optimal therapeutic effect on memory ([1]; HFD-induced AD mice, comparable to Met): 20 mg/kg
number of arm entries, Y-maze test ([1]; TBG096 0.1, 5, 20 mg/kg, Met 140 mg/kg, 54 days): No significant differences
escape latency, MWM test phase ([1]; fifth day): significant reductions
escape latency, MWM training phase ([1]; fourth day, Met 140 mg/kg and all doses of TBG096): markedly reduced
discrimination index, NOR test phase ([1]; vs HFD-only group): higher
number of platform crossings, MWM test phase ([1]; vs HFD-only group): increased significantly
phosphorylated AMPK/AMPK, LAMP2A, Hsc70, HK2 and PKM2 protein levels [2]: returned to normal
APP, Tau, p-Tau, and Aβ oligomers protein expression ([2]; vs HFD): significantly reduced
EdU cell proliferation activity [3]: promoting PC12 cell proliferation
